What was measured:
Conditions in all cases: binder
[1] = molecular target: T1, EphB1 (Homo sapiens, UniProt P54762)
T1 sequence (P54762 1-984): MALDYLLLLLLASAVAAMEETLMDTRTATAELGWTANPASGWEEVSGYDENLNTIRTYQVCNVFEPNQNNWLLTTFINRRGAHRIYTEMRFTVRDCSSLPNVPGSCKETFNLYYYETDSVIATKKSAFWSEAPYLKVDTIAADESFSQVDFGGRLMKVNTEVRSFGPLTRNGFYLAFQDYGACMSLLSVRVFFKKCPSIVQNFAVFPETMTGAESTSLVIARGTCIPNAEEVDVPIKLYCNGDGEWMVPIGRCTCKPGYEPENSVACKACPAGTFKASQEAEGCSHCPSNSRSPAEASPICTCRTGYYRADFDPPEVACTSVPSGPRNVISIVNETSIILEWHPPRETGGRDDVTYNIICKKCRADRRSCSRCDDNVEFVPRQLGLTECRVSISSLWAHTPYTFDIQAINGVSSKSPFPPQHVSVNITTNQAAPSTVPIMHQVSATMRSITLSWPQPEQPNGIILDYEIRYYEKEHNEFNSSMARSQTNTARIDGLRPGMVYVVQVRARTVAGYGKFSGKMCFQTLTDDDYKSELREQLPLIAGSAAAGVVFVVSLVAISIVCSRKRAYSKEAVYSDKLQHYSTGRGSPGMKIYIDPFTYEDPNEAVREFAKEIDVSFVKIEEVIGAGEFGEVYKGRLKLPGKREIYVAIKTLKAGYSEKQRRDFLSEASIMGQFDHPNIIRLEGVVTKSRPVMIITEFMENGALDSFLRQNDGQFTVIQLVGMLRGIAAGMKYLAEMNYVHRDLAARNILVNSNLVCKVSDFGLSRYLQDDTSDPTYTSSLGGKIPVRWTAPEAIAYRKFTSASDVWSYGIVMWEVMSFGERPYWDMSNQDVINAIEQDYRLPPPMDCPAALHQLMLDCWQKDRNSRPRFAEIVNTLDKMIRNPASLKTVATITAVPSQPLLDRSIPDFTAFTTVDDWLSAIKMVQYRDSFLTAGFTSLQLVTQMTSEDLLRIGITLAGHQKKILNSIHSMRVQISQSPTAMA

[2] = molecular target: T2, NEK2 (Homo sapiens, UniProt P51955)
T2 sequence (P51955 1-445): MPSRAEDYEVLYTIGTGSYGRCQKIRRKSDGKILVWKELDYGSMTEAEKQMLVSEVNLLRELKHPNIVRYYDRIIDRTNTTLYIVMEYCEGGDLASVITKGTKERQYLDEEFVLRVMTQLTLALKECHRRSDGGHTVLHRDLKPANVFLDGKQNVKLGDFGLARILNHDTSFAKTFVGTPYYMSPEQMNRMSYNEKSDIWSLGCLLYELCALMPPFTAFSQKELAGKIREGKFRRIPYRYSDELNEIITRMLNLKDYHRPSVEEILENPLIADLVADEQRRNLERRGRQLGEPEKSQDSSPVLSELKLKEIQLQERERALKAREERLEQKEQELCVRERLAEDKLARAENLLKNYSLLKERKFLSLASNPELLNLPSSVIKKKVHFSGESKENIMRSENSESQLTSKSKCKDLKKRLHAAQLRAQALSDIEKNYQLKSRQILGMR

[3] = molecular target: T3, EphB3 (Homo sapiens, UniProt P54753)
T3 sequence (P54753 1-998): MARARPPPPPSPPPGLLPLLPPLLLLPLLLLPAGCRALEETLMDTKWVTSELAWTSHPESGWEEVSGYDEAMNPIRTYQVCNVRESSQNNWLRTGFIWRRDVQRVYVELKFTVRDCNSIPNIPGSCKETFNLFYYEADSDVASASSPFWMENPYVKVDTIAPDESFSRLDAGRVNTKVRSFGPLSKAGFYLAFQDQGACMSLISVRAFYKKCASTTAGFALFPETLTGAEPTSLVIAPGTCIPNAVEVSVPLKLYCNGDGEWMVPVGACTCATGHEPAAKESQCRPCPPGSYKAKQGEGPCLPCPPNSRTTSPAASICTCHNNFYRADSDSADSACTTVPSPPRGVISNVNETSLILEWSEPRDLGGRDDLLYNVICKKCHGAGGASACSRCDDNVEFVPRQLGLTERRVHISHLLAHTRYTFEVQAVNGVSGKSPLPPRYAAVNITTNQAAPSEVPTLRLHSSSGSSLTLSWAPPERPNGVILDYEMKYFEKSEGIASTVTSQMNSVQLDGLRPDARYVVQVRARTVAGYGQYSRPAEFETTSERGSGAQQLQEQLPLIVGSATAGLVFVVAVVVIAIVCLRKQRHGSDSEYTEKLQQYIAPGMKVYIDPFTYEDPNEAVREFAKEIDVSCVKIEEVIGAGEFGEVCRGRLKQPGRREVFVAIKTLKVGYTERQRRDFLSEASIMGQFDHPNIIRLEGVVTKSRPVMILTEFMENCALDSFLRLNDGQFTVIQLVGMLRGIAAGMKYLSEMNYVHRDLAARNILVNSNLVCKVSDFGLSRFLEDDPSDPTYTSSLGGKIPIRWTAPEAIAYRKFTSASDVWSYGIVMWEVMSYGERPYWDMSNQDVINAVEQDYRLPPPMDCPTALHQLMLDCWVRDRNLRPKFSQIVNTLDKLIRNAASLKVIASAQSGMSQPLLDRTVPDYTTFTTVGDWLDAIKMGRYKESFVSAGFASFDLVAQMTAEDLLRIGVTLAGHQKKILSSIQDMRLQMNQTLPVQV

[4] = molecular target: MSK1b (Homo sapiens, UniProt O75582)
MSK1b, sequence (O75582 whole entry): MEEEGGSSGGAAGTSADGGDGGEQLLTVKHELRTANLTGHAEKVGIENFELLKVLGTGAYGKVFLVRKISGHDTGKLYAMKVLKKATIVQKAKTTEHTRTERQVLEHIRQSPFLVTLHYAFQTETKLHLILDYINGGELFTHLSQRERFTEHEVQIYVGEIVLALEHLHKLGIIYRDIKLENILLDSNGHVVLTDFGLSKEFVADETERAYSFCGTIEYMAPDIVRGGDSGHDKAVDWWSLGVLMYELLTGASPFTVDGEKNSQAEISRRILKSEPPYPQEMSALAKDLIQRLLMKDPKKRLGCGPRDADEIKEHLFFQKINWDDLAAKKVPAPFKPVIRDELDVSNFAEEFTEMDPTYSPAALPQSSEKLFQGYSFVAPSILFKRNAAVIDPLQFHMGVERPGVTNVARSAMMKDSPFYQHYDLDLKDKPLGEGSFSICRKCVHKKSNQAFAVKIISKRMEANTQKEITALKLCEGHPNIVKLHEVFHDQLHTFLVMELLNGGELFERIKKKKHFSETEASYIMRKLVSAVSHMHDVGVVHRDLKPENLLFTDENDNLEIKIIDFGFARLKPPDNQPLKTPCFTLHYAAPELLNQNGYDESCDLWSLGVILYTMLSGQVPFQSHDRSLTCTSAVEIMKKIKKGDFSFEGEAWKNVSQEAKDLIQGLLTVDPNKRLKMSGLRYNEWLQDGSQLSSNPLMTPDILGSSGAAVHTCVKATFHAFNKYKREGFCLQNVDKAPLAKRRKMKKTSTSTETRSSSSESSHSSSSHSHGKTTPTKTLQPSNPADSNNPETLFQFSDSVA

[5] = molecular target: CLK1 (Homo sapiens, UniProt P49759)
CLK1, sequence (P49759 whole entry): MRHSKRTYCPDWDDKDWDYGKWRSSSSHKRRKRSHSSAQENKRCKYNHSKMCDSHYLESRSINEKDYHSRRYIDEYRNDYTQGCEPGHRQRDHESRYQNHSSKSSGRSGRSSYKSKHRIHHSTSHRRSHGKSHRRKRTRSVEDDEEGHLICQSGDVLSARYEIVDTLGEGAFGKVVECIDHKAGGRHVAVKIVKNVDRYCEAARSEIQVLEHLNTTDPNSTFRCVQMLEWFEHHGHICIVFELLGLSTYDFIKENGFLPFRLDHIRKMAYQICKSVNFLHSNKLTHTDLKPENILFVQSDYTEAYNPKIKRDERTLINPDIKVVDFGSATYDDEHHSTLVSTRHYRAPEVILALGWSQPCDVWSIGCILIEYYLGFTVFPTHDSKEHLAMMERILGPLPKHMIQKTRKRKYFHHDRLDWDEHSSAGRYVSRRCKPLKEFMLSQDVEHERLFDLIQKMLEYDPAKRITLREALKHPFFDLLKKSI

Cc1cccc(-c2ccc(-c3cc4cnc(Nc5ccc(C)c(O)c5)nc4n(CCCCN)c3=O)c(Cl)c2)n1 [compound 32, 8-(4-Aminobutyl)-6-(2-chloro-4-(6-methylpyridin-2-yl)phenyl)-2-((3-hydroxy-4-methylphenyl)amino)pyrido[2,3-d]pyrimidin-7(8H)-one]
ΔTm 32 [1]: 6.6 °C | ΔTm 32 [2]: 10.1 °C | ΔTm 32 [3]: 8.5 °C | ΔTm 32 [4]: 4.6 °C | ΔTm 32 [5]: 0.7 °C

Cc1cccc(-c2ccc(-c3cc4cnc(Nc5ccc(O)cc5)nc4n(CCCCN)c3=O)c(Cl)c2)n1 [compound 31, 8-(4-Aminobutyl)-6-(2-chloro-4-(6-methylpyridin-2-yl)phenyl)-2-((4-hydroxyphenyl)amino) pyrido[2,3-d]pyrimidin-7(8H)-one]
ΔTm 31 [1]: 6.6 °C | ΔTm 31 [2]: 10.8 °C | ΔTm 31 [3]: 5.3 °C | ΔTm 31 [4]: 4.3 °C | ΔTm 31 [5]: 0.8 °C

Cc1cccc(-c2ccc(-c3cc4cnc(Nc5cc(C(F)(F)F)ccc5C)nc4n(CCCCN)c3=O)c(Cl)c2)n1 [compound 28, 8-(4-Aminobutyl)-6-(2-chloro-4-(6-methylpyridin-2-yl)phenyl)-2-((2-methyl-5-(trifluoromethyl)phenyl)amino)pyrido[2,3-d]pyrimidin-7(8H)-one]
ΔTm 28 [1]: 5.1 °C | ΔTm 28 [2]: 7.8 °C | ΔTm 28 [3]: 4.1 °C | ΔTm 28 [4]: 1.4 °C | ΔTm 28 [5]: 0.6 °C

Cc1cccc(-c2ccc(-c3cc4cnc(NCCCN5CCNCC5)nc4n(CCCCN)c3=O)c(Cl)c2)n1 [compound 29, 8-(4-Aminobutyl)-6-(2-chloro-4-(6-methylpyridin-2-yl)phenyl)-2-((3-(piperazin-1-yl)propyl)amino)pyrido[2,3-d]pyrimidin-7(8H)-one]
ΔTm 29 [1]: 4.3 °C | ΔTm 29 [2]: 5.1 °C | ΔTm 29 [3]: 2.3 °C | ΔTm 29 [4]: 0.2 °C | ΔTm 29 [5]: -0.3 °C

Cc1cccc(-c2ccc(-c3cc4cnc(Nc5ccc(CCCO)cc5)nc4n(CCCCN)c3=O)c(Cl)c2)n1 [compound 30, 8-(4-Aminobutyl)-6-(2-chloro-4-(6-methylpyridin-2-yl)phenyl)-2-((4-(3-hydroxypropyl)phenyl)amino)pyrido[2,3-d]pyrimidin-7(8H)-one]
ΔTm 30 [1]: 6.5 °C | ΔTm 30 [2]: 11.6 °C | ΔTm 30 [3]: 6.9 °C | ΔTm 30 [4]: 3.6 °C | ΔTm 30 [5]: -0.2 °C

Cc1cccc(-c2ccc(-c3cc4cnc(NCCCN5CCCC5=O)nc4n(CCCCN)c3=O)c(Cl)c2)n1 [compound 27, MR30]
ΔTm MR30 (27) [1]: 3.0 °C | ΔTm MR30 (27) [2]: 6.2 °C | ΔTm MR30 (27) [3]: 2.3 °C | ΔTm MR30 (27) [4]: -1.4 °C | ΔTm MR30 (27) [5]: -0.7 °C
